# Results reported in ChEMBL document CHEMBL6153076, “Discovery of novel JQ1 derivatives as dual ferroptosis and apoptosis inducers for the treatment of triple-negative breast cancer” (Eur J Med Chem, 2025).
# Calls of active or inactive are those of the source. No cut-off for these calls is given here.
# Tests used:
# [1] = target: T1, Phospholipid hydroperoxide glutathione peroxidase GPX4 (Homo sapiens) (UniProt P36969); experiment: Inhibition of GPX4 (unknown origin) upto 3 uM incubated for 60 mins in presence of NADPH by absorbance based analysis
# T1 sequence (whole entry): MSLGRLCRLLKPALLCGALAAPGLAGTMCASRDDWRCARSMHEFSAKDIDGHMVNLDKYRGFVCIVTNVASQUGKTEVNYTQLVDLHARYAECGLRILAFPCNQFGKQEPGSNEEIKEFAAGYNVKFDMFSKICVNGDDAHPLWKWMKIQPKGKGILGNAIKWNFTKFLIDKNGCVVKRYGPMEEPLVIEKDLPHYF
# MDA-MB-231 = experiment: Antiproliferative activity against human MDA-MB-231 cells assessed as reduction in cell proliferation incubated for 72 hrs by MTT assay; format: functional, cell-based
smiles,measurement,setting,value
CC(=O)N1CCC(NC(=O)C[C@@H]2N=C(c3ccc(Cl)cc3)c3c(sc(C)c3C)-n3c(C)nnc32)CC1,inhibition,[1],inactive
same,Activity,MDA-MB-231,Active
